# Assays:
# [1] = biological target: T1, Estrogen-related receptor gamma (Homo sapiens, UniProt P62508)
# T1 sequence (P62508 whole entry): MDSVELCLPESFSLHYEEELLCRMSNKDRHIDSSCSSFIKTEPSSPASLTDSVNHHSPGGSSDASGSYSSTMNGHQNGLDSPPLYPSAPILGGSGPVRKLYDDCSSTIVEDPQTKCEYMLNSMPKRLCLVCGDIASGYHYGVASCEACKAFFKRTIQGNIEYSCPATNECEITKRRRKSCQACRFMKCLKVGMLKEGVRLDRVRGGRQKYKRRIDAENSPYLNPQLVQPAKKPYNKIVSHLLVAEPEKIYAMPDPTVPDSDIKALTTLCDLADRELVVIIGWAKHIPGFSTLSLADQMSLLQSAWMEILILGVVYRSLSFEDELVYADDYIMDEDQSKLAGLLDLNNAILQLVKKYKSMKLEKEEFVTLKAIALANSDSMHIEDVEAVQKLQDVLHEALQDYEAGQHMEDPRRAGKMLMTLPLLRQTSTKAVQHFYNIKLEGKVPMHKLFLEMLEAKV
# Description: Inhibition of fluorescien-conjugated coactivator PGC1a binding to GST-tagged human ERRgamma LBD after 1 hr by TR-FRET assay
# [2] = biological target: T2, Steroid hormone receptor ERR1 (Homo sapiens, UniProt P11474); experiment: Inhibition of fluorescien-conjugated coactivator PGC1a binding to ERRalpha (unknown origin) after 1 hr by TR-FRET assay
# T2 sequence (P11474 whole entry): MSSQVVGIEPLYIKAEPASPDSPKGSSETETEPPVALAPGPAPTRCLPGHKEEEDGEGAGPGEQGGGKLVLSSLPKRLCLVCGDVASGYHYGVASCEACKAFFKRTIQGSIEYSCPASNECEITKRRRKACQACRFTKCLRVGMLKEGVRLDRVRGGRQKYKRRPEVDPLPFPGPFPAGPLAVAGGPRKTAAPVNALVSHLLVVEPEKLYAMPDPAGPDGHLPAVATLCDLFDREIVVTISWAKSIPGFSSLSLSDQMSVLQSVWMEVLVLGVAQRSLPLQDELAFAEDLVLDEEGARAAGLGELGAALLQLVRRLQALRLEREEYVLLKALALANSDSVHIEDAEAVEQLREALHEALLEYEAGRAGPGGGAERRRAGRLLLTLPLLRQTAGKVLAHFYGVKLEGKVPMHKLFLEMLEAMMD
# [3] = Permeability of the compound in PBS at pH 7.4 at 10 uM after 5 hrs by LC-MS/MS analysis; assay type: ADME; settings: not told, read-out: permeability
# in vitro [4] = settings: human, liver microsomes
# Description: Metabolic stability in human liver microsomes assessed as compound remaining at 1 uM after 30 mins in presence of NADPH by LC-MS/MS analysis
# [5] = biological target: T3, Steroid hormone receptor ERR2 (Homo sapiens, UniProt O95718); experiment: Inhibition of fluorescien-conjugated coactivator PGC1a binding to ERRbeta (unknown origin) after 1 hr by TR-FRET assay
# T3 sequence (O95718 whole entry): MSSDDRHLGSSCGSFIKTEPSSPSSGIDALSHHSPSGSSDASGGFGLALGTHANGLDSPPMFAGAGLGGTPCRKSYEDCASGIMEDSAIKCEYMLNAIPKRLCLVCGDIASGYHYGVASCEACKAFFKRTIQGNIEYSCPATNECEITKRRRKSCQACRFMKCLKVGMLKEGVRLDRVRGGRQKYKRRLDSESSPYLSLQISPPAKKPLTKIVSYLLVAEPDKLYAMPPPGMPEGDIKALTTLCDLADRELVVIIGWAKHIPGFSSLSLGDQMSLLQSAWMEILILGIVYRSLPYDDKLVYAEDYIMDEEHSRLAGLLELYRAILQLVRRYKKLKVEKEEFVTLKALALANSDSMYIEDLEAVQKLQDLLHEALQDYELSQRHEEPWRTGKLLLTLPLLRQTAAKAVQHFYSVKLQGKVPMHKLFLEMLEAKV
# Estrogen receptor = biological target: T4, Estrogen receptor (Homo sapiens, UniProt P03372)
# T4 sequence (P03372 whole entry): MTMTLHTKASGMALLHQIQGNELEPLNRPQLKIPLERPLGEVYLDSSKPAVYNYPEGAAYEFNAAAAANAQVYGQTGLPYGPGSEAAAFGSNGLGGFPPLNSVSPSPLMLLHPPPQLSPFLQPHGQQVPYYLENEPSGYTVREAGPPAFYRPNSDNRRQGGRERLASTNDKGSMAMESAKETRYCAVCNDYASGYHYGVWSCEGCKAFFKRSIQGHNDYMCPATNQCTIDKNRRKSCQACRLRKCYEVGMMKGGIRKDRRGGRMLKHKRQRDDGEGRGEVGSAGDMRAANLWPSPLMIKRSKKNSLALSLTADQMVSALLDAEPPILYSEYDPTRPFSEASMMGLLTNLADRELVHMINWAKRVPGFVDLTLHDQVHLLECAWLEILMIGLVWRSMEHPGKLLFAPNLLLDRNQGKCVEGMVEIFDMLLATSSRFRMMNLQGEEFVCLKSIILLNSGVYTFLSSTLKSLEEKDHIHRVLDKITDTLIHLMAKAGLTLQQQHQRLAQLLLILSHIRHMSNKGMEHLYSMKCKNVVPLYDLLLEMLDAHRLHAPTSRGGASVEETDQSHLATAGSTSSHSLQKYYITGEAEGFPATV
# Description: Inhibition of fluorescien-conjugated coactivator PGC1a binding to ERalpha (unknown origin) after 1 hr by TR-FRET assay
# CYP2D6 = CYP2D6 (Homo sapiens, UniProt P10635); experiment: Inhibition of CYP2D6 in human liver microsomes assessed as remaining activity by measuring dextromethorphan O-demethylase activity at 10 uM pre-incubated for 5 mins followed by NADPH regenerating system addition by LC-MS/MS analysis relative to control; assay type: ADME; settings: probe dextromethorphan (O-demethylation), read-out: Activity
# Sequence of CYP2D6 (P10635 whole entry): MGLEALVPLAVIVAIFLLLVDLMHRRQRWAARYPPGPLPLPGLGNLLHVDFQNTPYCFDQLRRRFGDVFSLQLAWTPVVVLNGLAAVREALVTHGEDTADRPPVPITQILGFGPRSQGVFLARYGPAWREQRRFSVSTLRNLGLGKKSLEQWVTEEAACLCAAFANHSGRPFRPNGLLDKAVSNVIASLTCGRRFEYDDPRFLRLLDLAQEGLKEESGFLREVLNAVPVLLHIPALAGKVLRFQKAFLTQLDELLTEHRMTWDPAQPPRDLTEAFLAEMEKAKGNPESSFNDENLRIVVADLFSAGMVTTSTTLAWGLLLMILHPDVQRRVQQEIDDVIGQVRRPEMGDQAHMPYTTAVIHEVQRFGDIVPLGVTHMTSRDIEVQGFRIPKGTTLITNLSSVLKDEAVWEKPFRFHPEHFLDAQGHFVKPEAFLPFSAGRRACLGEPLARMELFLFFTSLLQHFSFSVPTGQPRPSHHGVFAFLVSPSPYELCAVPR
# CYP1A2 = biological target: T5, CYP1A2 (Homo sapiens, UniProt P05177); experiment: Inhibition of CYP1A2 in human liver microsomes assessed as remaining activity by measuring phenacetin O-deethylase activity at 10 uM pre-incubated for 5 mins followed by NADPH regenerating system addition by LC-MS/MS analysis relative to control; assay type: ADME; settings: probe phenacetin (O-deethylation), read-out: Activity
# T5 sequence (P05177 whole entry): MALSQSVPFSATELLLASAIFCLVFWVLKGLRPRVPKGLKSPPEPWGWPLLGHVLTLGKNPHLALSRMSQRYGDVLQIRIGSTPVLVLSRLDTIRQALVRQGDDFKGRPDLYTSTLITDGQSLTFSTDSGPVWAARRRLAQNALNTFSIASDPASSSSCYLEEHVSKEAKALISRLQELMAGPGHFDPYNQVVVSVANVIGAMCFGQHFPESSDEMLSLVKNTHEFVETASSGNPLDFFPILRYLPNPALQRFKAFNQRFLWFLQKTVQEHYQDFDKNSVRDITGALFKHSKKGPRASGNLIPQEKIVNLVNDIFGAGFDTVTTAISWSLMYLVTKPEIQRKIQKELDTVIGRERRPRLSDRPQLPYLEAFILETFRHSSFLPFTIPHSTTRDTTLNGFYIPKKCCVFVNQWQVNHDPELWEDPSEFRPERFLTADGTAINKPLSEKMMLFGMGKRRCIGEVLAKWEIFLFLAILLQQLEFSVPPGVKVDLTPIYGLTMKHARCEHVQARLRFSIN
# in vitro [6] = settings: rat, liver microsomes
# Description: Metabolic stability in rat liver microsomes assessed as compound remaining at 1 uM after 30 mins in presence of NADPH by LC-MS/MS analysis
# CYP2C19 = CYP2C19 (Homo sapiens, UniProt P33261); experiment: Inhibition of CYP2C19 in human liver microsomes assessed as remaining activity by measuring S-mephenytoin 4-hydroxylase activity at 10 uM pre-incubated for 5 mins followed by NADPH regenerating system addition by LC-MS/MS analysis relative to control; assay type: ADME; settings: probe S-mephenytoin (4-hydroxylation), read-out: Activity
# Sequence of CYP2C19 (P33261 whole entry): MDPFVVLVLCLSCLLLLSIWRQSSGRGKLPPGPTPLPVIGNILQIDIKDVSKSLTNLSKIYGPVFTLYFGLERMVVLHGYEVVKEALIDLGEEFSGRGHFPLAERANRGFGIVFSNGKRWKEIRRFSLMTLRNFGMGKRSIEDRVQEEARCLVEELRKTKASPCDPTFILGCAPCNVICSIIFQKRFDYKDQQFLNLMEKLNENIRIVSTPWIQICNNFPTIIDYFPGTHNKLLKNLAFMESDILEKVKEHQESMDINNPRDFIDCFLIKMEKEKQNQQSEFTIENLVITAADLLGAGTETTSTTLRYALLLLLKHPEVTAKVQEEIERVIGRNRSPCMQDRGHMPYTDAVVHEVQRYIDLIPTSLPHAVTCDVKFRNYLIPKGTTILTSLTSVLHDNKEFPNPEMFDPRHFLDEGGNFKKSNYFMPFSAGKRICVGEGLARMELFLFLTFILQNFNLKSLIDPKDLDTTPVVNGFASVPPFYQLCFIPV
# [7] = Metabolic stability in dog liver microsomes assessed as compound remaining at 1 uM after 30 mins in presence of NADPH by LC-MS/MS analysis; assay type: ADME, Canis lupus familiaris; settings: read-out: Stability
# in vitro [8] = settings: mouse, liver microsomes
# Description: Metabolic stability in mouse liver microsomes assessed as compound remaining at 1 uM after 30 mins in presence of NADPH by LC-MS/MS analysis
# CYP2C9 = CYP2C9 (Homo sapiens, UniProt P11712); experiment: Inhibition of CYP2C9 in human liver microsomes assessed as remaining activity by measuring tolbutamide 4-hydroxylase activity at 10 uM pre-incubated for 5 mins followed by NADPH regenerating system addition by LC-MS/MS analysis relative to control; assay type: ADME; settings: probe tolbutamide (4-hydroxylation), read-out: Activity
# Sequence of CYP2C9 (P11712 whole entry): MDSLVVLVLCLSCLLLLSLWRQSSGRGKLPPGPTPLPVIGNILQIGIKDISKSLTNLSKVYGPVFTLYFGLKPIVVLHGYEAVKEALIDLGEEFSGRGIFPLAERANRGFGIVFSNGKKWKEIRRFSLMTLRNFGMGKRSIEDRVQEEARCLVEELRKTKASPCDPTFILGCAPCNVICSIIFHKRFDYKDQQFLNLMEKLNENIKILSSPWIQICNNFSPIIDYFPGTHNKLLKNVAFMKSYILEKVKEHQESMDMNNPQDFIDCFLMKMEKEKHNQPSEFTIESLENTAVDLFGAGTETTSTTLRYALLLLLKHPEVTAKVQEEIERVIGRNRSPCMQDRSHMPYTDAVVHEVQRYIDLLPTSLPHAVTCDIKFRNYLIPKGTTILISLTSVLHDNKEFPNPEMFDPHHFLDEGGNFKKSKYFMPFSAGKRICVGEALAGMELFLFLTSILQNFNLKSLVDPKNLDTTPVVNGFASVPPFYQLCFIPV
# [9] = biological target: T1, Estrogen-related receptor gamma; remark: listed apart in the source
# Description: Inverse agonist activity at ERRgamma (unknown origin) expressed in human AD293 cells after 24 hrs by beta-galactosidase/luciferase reporter gene assay
# CYP3A4 = CYP3A4 (Homo sapiens, UniProt P08684); experiment: Inhibition of CYP3A4 in human liver microsomes assessed as remaining activity by measuring midazolam 1'-hydroxylase activity at 10 uM pre-incubated for 5 mins followed by NADPH regenerating system addition by LC-MS/MS analysis relative to control; assay type: ADME; settings: probe midazolam (1'-hydroxylation), read-out: Activity
# Sequence of CYP3A4 (P08684 whole entry): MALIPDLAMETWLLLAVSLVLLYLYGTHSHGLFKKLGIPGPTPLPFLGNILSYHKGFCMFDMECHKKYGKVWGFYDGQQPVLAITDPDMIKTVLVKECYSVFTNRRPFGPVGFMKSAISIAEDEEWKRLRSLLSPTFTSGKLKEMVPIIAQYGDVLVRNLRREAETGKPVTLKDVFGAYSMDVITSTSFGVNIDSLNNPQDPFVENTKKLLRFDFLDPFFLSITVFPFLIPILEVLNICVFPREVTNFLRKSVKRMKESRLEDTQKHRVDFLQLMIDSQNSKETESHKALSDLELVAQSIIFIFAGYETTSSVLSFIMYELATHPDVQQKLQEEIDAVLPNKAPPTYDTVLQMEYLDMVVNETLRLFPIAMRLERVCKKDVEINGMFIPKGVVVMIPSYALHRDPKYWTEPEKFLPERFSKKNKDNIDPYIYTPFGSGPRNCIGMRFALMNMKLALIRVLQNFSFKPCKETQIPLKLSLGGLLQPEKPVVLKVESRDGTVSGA
structure (smiles),measurement,setting,value
CN(C)CCOc1ccc(/C(=C(/CCCO)c2cccnc2)c2ccccc2)cc1,IC50,[1],> 10 µM
CCN(CC)CCOc1ccc(/C(=C(/CCCO)c2ccccc2)c2ccc(O)cc2)cc1.Cl,IC50,[2],> 10 µM
same,"Papp at 5 h, 10 µM",[3],1.02 ×10⁻⁶ cm/s
same,"remaining at 0.5 h, 1 µM",in vitro [4],18%
same,IC50,[5],> 10 µM
same,IC50,[1],0.18 µM
same,IC50,Estrogen receptor,0.875 µM
same,activity at 10 µM,CYP2D6,98%
same,activity at 10 µM,CYP1A2,82%
same,"remaining at 0.5 h, 1 µM",in vitro [6],32%
same,activity at 10 µM,CYP2C19,70%
same,"remaining at 0.5 h, 1 µM",[7],22%
same,"remaining at 0.5 h, 1 µM",in vitro [8],10%
same,activity at 10 µM,CYP2C9,90%
same,IC50,[9],0.079 µM
same,activity at 10 µM,CYP3A4,93%
CN(C)CCOc1ccc(/C(=C(/CCCO)c2ccccc2)c2ccncc2)cc1,IC50,[1],> 10 µM
CN(C)CCOc1ccc(/C(=C(/CCCO)c2ccccc2)c2ccc(C(F)(F)F)cc2)cc1,IC50,[1],1.3 µM
CN(C)CCOc1ccc(/C(=C(/CCCO)c2cccnc2)c2ccc(Br)cc2)cc1,IC50,[1],> 10 µM
CN(C)CCOc1ccc(/C(=C(/CCCO)c2ccccc2)c2ccc(Cl)cc2)cc1,IC50,[1],0.52 µM
CN(C)CCOc1ccc(/C(=C(/CCCO)c2cccc(F)c2)c2ccc(Br)cc2)cc1,IC50,[1],1.1 µM
COc1ccc(/C(=C(\CCCO)c2ccc3cnn(C)c3c2)c2ccc(OCCN(C)C)cc2)cc1,IC50,[1],> 10 µM
CN(C)CCOc1ccc(/C(=C(/CCCF)c2ccccc2)c2ccc(O)cc2)cc1.Cl,IC50,[2],8.01 µM
same,"Papp at 5 h, 10 µM",[3],2.12 ×10⁻⁶ cm/s
same,"remaining at 0.5 h, 1 µM",in vitro [4],72%
same,IC50,[5],0.722 µM
same,IC50,[1],0.02 µM
same,activity at 10 µM,CYP2D6,> 100%
same,activity at 10 µM,CYP1A2,> 100%
same,"remaining at 0.5 h, 1 µM",in vitro [6],35%
same,activity at 10 µM,CYP2C19,72%
same,"remaining at 0.5 h, 1 µM",[7],21%
same,"remaining at 0.5 h, 1 µM",in vitro [8],24%
same,activity at 10 µM,CYP2C9,99%
same,IC50,[9],0.048 µM
same,activity at 10 µM,CYP3A4,93%
CN(C)CCOc1ccc(/C(=C(/CCC(F)F)c2ccccc2)c2ccc(O)cc2)cc1.Cl,IC50,[2],8.1 µM
same,"Papp at 5 h, 10 µM",[3],0.54 ×10⁻⁶ cm/s
same,"remaining at 0.5 h, 1 µM",in vitro [4],77%
same,IC50,[5],> 10 µM
same,activity at 10 µM,CYP2D6,12%
same,activity at 10 µM,CYP1A2,14%
same,"remaining at 0.5 h, 1 µM",in vitro [6],66%
same,activity at 10 µM,CYP2C19,11%
same,"remaining at 0.5 h, 1 µM",[7],73%
same,"remaining at 0.5 h, 1 µM",in vitro [8],91%
same,activity at 10 µM,CYP2C9,60%
same,IC50,[9],0.111 µM
same,activity at 10 µM,CYP3A4,11%
CN(C)CCOc1ccc(/C(=C(/CCCO)c2ccccc2)c2ccc(O)cc2)cc1.Cl,"Papp at 5 h, 10 µM",[3],0.43 ×10⁻⁶ cm/s
same,"remaining at 0.5 h, 1 µM",in vitro [4],43%
same,activity at 10 µM,CYP2D6,82%
same,activity at 10 µM,CYP1A2,84%
same,"remaining at 0.5 h, 1 µM",in vitro [6],26%
same,activity at 10 µM,CYP2C19,78%
same,activity at 10 µM,CYP2C9,73%
same,activity at 10 µM,CYP3A4,83%
Cc1ccc(/C(=C(\CCCO)c2ccc3cnn(C)c3c2)c2ccc(OCCN(C)C)cc2)cc1,IC50,[1],5.6 µM
CN(C)CCOc1ccc(/C(=C(/CCC(F)F)c2ccccc2)c2ccc(Br)cc2)cc1,IC50,[1],0.89 µM
CN(C)CCOc1ccc(/C(=C(/CCCO)c2ccccc2)c2ccc(F)cc2)cc1,IC50,[1],3.9 µM
CN(C)CCOc1ccc(/C(=C(/CCCO)c2ccccc2)c2cccnc2)cc1,IC50,[1],> 10 µM
CN(C)CCOc1ccc(/C(=C(/CCCO)c2ccc3cnn(C)c3c2)c2ccc(Br)cc2)cc1,IC50,[1],5.3 µM
CN(C)CCOc1ccc(/C(=C(/CCCF)c2ccccc2)c2ccc(Br)cc2)cc1,IC50,[1],0.48 µM
CN(C)CCOc1ccc(/C(=C(/CCCO)c2ccccc2)c2ccc(S(C)(=O)=O)cc2)cc1,IC50,[1],> 10 µM
CN(C)CCOc1ccc(/C(=C(/CCCO)c2ccccc2)c2ccccc2)cc1,IC50,[1],1.5 µM
COc1ccc(/C(=C(\CCCO)c2ccccc2)c2ccc(OCCN(C)C)cc2)cc1,IC50,[1],1 µM
Cc1ccc(/C(=C(\CCCO)c2cccnc2)c2ccc(OCCN(C)C)cc2)cc1,IC50,[1],> 10 µM
CN(C)CCOc1ccc(/C(=C(/CCCO)c2ccccc2)c2ccc(C#N)cc2)cc1,IC50,[1],> 10 µM
CN(C)CCOc1ccc(/C(=C(/CCCO)c2ccccc2)c2ccc(F)cc2F)cc1,IC50,[1],6.7 µM
CN(C)CCCOc1ccc(/C(=C(/CCCO)c2ccccc2)c2ccc(O)cc2)cc1.Cl,IC50,[2],> 10 µM
same,"Papp at 5 h, 10 µM",[3],0.36 ×10⁻⁶ cm/s
same,"remaining at 0.5 h, 1 µM",in vitro [4],72%
same,IC50,[5],> 10 µM
same,IC50,[1],0.09 µM
same,activity at 10 µM,CYP2D6,93%
same,activity at 10 µM,CYP1A2,96%
same,"remaining at 0.5 h, 1 µM",in vitro [6],19%
same,activity at 10 µM,CYP2C19,64%
same,"remaining at 0.5 h, 1 µM",[7],19%
same,"remaining at 0.5 h, 1 µM",in vitro [8],13%
same,activity at 10 µM,CYP2C9,90%
same,IC50,[9],0.058 µM
same,activity at 10 µM,CYP3A4,79%
Cc1ccc(/C(=C(\CCCO)c2cccc(F)c2)c2ccc(OCCN(C)C)cc2)cc1,IC50,[1],0.5 µM
